Measurements reported in the kinase profiling compilation of Christmann-Franck et al. (2016).

Assays:
Assay in all cases: radiometric filter-binding kinase assay, Kinase HotSpot
Settings in all cases: compound 0.5 µM; ATP 10 µM
BRSK2 (human) = BRSK2 (human) (UniProt Q8IWQ3)
CHEK2 (human) = CHEK2 (human) (UniProt O96017)
CSNK1D (human) = CSNK1D (human) (UniProt P48730)
DDR2 (human) = DDR2 (human) (UniProt Q16832)
MAPK9 (human) = MAPK9 (human) (UniProt P45984)
PIM1 (human) = PIM1 (human) (UniProt P11309)
PIM1 (human), sequence (P11309 whole entry, looked up): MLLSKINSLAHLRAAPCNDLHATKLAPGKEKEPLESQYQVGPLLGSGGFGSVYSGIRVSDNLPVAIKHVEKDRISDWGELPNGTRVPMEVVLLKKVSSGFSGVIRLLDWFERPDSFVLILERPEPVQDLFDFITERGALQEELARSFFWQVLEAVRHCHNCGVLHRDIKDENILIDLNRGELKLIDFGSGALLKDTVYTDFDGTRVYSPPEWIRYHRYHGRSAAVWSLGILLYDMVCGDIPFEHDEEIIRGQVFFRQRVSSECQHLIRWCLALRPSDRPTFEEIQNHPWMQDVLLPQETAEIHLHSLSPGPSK

MAP3K14 (human) = MAP3K14 (human) (UniProt Q99558)
MERTK (human) = MERTK (human) (UniProt Q12866)
MAP4K4 (human) = MAP4K4 (human) (UniProt O95819)
SRPK2 (human) = SRPK2 (human) (UniProt P78362)
SRPK2 (human), sequence (P78362 whole entry, looked up): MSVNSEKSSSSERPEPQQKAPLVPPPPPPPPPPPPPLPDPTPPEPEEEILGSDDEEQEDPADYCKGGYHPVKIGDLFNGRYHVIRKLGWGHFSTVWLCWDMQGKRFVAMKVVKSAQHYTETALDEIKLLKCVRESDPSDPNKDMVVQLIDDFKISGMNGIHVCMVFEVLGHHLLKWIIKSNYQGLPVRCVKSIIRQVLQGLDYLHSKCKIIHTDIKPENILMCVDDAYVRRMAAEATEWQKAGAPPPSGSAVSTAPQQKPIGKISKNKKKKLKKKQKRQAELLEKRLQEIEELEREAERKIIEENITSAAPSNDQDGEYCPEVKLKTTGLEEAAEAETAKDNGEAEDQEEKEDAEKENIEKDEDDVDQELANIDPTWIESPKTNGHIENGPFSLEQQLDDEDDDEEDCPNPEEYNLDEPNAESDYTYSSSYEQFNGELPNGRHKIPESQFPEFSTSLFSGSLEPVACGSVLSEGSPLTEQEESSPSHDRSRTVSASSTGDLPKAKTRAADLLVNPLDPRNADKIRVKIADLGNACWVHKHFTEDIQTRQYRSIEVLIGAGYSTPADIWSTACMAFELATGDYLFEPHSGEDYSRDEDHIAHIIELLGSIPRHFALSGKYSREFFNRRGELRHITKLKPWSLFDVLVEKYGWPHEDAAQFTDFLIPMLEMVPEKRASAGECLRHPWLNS

RPS6KA5 KD2 (human) = RPS6KA5 KD2 (human) (UniProt O75582)
MAPKAPK5 (human) = MAPKAPK5 (human) (UniProt Q8IW41)
PIM2 (human) = PIM2 (human) (UniProt Q9P1W9)
PDGFRA (human) = PDGFRA (human) (UniProt P16234)
NEK6 (human) = NEK6 (human) (UniProt Q9HC98)
TSSK2 (human) = TSSK2 (human) (UniProt Q96PF2)
CSNK2A2 (human) = CSNK2A2 (human) (UniProt P19784)
PRKD1 (human) = PRKD1 (human) (UniProt Q15139)
CLK4 (human) = CLK4 (human) (UniProt Q9HAZ1)
NEK9 (human) = NEK9 (human) (UniProt Q8TD19)
EPHB4 (human) = EPHB4 (human) (UniProt P54760)
IKBKE (human) = IKBKE (human) (UniProt Q14164)
SRMS (human) = SRMS (human) (UniProt Q9H3Y6)
CDK4 CCND1 (human) = CDK4 CCND1 (human) (UniProt P24385+P11802)
WNK2 (human) = WNK2 (human) (UniProt Q9Y3S1)
DYRK1A (human) = DYRK1A (human) (UniProt Q13627)
TGFBR2 (human) = TGFBR2 (human) (UniProt P37173)
DAPK2 (human) = DAPK2 (human) (UniProt Q9UIK4)
MARK2 (human) = MARK2 (human) (UniProt Q7KZI7)
PASK (human) = PASK (human) (UniProt Q96RG2)
CSF1R (human) = CSF1R (human) (UniProt P07333)
HIPK4 (human) = HIPK4 (human) (UniProt Q8NE63)
MINK1 (human) = MINK1 (human) (UniProt Q8N4C8)
MINK1 (human), sequence (Q8N4C8 whole entry, looked up): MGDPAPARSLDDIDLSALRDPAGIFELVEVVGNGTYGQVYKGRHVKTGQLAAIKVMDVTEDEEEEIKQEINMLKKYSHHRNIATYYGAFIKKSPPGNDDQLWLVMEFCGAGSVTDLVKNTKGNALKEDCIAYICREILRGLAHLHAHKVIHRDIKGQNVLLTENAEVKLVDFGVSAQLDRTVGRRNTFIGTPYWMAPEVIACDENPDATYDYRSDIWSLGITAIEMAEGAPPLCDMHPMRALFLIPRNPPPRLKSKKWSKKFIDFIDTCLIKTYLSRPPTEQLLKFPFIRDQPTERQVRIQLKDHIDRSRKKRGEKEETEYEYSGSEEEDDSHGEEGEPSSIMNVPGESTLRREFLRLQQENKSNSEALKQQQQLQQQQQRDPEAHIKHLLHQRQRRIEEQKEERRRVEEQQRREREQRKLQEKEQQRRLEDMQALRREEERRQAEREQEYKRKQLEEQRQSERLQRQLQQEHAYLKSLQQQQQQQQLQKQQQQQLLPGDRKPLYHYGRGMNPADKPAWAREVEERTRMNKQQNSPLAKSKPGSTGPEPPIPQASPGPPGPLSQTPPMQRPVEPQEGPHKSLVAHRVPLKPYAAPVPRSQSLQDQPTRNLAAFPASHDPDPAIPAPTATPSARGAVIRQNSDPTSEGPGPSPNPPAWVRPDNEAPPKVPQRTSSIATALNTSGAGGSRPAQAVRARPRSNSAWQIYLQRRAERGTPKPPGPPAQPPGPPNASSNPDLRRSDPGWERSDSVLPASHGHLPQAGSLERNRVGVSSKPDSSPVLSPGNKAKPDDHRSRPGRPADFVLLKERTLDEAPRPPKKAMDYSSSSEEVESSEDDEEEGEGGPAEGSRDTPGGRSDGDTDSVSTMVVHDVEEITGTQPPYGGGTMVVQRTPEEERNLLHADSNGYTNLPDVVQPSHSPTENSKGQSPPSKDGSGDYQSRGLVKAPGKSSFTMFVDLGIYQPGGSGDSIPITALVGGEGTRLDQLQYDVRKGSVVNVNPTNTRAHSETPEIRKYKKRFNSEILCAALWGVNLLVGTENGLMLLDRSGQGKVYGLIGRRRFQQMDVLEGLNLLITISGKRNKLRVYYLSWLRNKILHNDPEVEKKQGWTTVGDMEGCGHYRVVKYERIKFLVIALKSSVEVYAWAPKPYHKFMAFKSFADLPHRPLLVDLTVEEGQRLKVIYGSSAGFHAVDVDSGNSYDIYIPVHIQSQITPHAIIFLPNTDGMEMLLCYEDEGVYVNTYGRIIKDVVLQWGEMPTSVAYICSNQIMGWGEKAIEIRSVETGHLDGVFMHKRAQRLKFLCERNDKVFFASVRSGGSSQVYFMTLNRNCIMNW

MAP2K1 (human) = MAP2K1 (human) (UniProt Q02750)
GRK4 (human) = GRK4 (human) (UniProt P32298)
PAK1 (human) = PAK1 (human) (UniProt Q13153)
PAK1 (human), sequence (Q13153 whole entry, looked up): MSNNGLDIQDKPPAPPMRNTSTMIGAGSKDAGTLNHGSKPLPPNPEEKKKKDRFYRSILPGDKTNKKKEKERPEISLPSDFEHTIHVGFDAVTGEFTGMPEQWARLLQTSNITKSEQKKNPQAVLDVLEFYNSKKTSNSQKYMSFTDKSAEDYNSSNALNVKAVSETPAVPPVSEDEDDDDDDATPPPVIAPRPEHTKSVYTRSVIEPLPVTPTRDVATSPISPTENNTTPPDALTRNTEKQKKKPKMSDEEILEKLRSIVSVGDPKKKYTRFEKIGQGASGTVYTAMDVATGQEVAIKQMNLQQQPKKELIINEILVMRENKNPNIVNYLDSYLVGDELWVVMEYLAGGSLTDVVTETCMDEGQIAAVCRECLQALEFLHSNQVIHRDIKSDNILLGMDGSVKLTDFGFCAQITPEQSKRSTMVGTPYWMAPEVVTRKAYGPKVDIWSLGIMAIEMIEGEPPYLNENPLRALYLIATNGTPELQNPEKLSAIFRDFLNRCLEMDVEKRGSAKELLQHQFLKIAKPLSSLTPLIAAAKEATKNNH

FRK (human) = FRK (human) (UniProt P42685)
ULK2 (human) = ULK2 (human) (UniProt Q8IYT8)
BLK (human) = BLK (human) (UniProt P51451)
BLK (human), sequence (P51451 whole entry, looked up): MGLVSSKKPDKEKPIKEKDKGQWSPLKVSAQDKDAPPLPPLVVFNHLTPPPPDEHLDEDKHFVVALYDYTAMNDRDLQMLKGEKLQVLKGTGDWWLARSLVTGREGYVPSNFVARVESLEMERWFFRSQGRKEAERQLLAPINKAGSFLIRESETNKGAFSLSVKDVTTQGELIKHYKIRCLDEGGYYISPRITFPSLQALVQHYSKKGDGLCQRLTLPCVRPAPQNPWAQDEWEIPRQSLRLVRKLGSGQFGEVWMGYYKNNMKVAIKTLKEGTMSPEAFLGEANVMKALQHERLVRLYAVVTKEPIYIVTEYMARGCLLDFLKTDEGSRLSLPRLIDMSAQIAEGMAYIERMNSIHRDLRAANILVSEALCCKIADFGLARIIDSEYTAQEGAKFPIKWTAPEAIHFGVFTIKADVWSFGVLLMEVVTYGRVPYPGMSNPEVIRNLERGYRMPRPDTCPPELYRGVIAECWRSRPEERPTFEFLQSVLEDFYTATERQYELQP

ERBB2 (human) = ERBB2 (human) (UniProt P04626)
MUSK (human) = MUSK (human) (UniProt O15146)
EPHA5 (human) = EPHA5 (human) (UniProt P54756)
EPHA5 (human), sequence (P54756 whole entry, looked up): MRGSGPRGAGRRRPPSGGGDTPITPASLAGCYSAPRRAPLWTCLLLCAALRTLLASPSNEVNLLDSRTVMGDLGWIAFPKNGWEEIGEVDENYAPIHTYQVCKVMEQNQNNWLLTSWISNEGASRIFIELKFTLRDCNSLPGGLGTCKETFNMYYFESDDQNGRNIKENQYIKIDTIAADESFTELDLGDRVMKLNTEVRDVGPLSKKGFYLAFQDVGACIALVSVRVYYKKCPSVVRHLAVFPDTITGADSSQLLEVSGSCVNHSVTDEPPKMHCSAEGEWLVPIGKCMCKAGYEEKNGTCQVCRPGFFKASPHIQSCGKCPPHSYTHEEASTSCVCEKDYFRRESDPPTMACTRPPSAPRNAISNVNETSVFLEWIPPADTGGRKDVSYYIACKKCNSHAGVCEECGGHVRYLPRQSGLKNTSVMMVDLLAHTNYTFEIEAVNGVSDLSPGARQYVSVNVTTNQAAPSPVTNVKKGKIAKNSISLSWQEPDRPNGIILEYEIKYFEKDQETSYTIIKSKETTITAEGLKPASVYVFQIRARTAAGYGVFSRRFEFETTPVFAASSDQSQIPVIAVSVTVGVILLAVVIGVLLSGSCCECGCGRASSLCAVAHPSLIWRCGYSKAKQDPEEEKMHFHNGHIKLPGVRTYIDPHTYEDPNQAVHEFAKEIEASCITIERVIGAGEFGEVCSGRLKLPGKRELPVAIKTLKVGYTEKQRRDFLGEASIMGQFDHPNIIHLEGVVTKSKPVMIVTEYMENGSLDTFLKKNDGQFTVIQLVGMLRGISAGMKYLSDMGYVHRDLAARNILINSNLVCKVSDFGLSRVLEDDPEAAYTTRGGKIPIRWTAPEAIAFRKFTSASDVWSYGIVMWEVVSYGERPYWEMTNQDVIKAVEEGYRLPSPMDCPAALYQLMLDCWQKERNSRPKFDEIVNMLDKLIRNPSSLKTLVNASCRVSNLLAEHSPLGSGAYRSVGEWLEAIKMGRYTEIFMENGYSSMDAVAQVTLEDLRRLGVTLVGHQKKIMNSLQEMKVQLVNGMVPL

CHEK2 (human), sequence (O96017 whole entry, looked up): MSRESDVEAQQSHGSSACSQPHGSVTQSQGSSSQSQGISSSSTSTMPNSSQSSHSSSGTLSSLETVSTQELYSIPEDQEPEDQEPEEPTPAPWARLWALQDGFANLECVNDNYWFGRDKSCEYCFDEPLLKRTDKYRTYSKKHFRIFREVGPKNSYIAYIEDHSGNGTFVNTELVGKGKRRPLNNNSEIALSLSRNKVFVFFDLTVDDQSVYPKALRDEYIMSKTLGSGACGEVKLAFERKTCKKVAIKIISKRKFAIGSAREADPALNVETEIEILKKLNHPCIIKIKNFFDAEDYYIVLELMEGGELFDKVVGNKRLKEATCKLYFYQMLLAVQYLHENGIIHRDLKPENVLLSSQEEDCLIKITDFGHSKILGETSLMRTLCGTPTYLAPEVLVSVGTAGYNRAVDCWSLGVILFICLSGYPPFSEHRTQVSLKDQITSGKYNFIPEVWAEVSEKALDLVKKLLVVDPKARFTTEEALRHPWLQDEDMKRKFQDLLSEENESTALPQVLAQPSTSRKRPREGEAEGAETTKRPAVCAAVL

COc1ccc2c(c1)c(C1=C(c3c[nH]c4ccccc34)C(=O)NC1=O)cn2CCCN(C)C
residual activity (BRSK2 (human)): 61.3% | residual activity (CHEK2 (human)): 38.8% | residual activity (CSNK1D (human)): 92% | residual activity (DDR2 (human)): 101% | residual activity (MAPK9 (human)): 86.1% | residual activity (PIM1 (human)): 11.6% | residual activity (MAP3K14 (human)): 79.2% | residual activity (MERTK (human)): 84% | residual activity (MAP4K4 (human)): 37.8% | residual activity (SRPK2 (human)): 88% | residual activity (RPS6KA5 KD2 (human)): 61.3% | residual activity (MAPKAPK5 (human)): 98.1% | residual activity (PIM2 (human)): 90.5% | residual activity (PDGFRA (human)): 85.2% | residual activity (NEK6 (human)): 101% | residual activity (TSSK2 (human)): 85.5% | residual activity (CSNK2A2 (human)): 99.3% | residual activity (PRKD1 (human)): 68.8% | residual activity (CLK4 (human)): 32.8% | residual activity (NEK9 (human)): 90.3% | residual activity (EPHB4 (human)): 94.2% | residual activity (IKBKE (human)): 100% | residual activity (SRMS (human)): 95.9% | residual activity (CDK4 CCND1 (human)): 78.6% | residual activity (WNK2 (human)): 96.5% | residual activity (DYRK1A (human)): 84.7% | residual activity (TGFBR2 (human)): 120% | residual activity (DAPK2 (human)): 81.1% | residual activity (MARK2 (human)): 91.8% | residual activity (PASK (human)): 83.8% | residual activity (CSF1R (human)): 92.8% | residual activity (HIPK4 (human)): 101% | residual activity (MINK1 (human)): 78.6% | residual activity (MAP2K1 (human)): 85% | residual activity (GRK4 (human)): 92.8% | residual activity (PAK1 (human)): 87.4% | residual activity (FRK (human)): 91.3% | residual activity (ULK2 (human)): 96.1% | residual activity (BLK (human)): 78.8% | residual activity (ERBB2 (human)): 115% | residual activity (MUSK (human)): 53.5% | residual activity (EPHA5 (human)): 87.2%

CCCCc1c(-c2ccc(OC)cc2)[nH]c2nccnc12
residual activity (BRSK2 (human)): 90.8% | residual activity (CHEK2 (human)): 72.8% | residual activity (CSNK1D (human)): 94.7% | residual activity (DDR2 (human)): 94.3% | residual activity (MAPK9 (human)): 84.8% | residual activity (PIM1 (human)): 97% | residual activity (MAP3K14 (human)): 105% | residual activity (MERTK (human)): 92.6% | residual activity (MAP4K4 (human)): 66.5% | residual activity (SRPK2 (human)): 105% | residual activity (RPS6KA5 KD2 (human)): 104% | residual activity (MAPKAPK5 (human)): 95.3% | residual activity (PIM2 (human)): 115% | residual activity (PDGFRA (human)): 90.3% | residual activity (NEK6 (human)): 111% | residual activity (TSSK2 (human)): 93.7% | residual activity (CSNK2A2 (human)): 94.1% | residual activity (PRKD1 (human)): 92.9% | residual activity (CLK4 (human)): 73.2% | residual activity (NEK9 (human)): 106% | residual activity (EPHB4 (human)): 89.5% | residual activity (IKBKE (human)): 100% | residual activity (SRMS (human)): 96.7% | residual activity (CDK4 CCND1 (human)): 60.4% | residual activity (WNK2 (human)): 112% | residual activity (DYRK1A (human)): 102% | residual activity (TGFBR2 (human)): 74.8% | residual activity (DAPK2 (human)): 101% | residual activity (MARK2 (human)): 83.1% | residual activity (PASK (human)): 97.6% | residual activity (CSF1R (human)): 37.7% | residual activity (HIPK4 (human)): 119% | residual activity (MINK1 (human)): 84.4% | residual activity (MAP2K1 (human)): 88.7% | residual activity (GRK4 (human)): 96.7% | residual activity (PAK1 (human)): 83.7% | residual activity (FRK (human)): 86.5% | residual activity (ULK2 (human)): 108% | residual activity (BLK (human)): 96.7% | residual activity (ERBB2 (human)): 96.4% | residual activity (MUSK (human)): 95.4% | residual activity (EPHA5 (human)): 91.6%

O=C1c2ccccc2-c2nc3nnnn3nc21
residual activity (BRSK2 (human)): 66.7% | residual activity (CHEK2 (human)): 54.7% | residual activity (CSNK1D (human)): 86.8% | residual activity (DDR2 (human)): 58.7% | residual activity (MAPK9 (human)): 51.9% | residual activity (PIM1 (human)): 94.1% | residual activity (MAP3K14 (human)): 124% | residual activity (MERTK (human)): 93.1% | residual activity (MAP4K4 (human)): 89% | residual activity (SRPK2 (human)): 95.8% | residual activity (RPS6KA5 KD2 (human)): 68.7% | residual activity (MAPKAPK5 (human)): 66.9% | residual activity (PIM2 (human)): 92.8% | residual activity (PDGFRA (human)): 44.1% | residual activity (NEK6 (human)): 96.3% | residual activity (TSSK2 (human)): 75% | residual activity (CSNK2A2 (human)): 76.2% | residual activity (PRKD1 (human)): 86.5% | residual activity (CLK4 (human)): 78.3% | residual activity (NEK9 (human)): 119% | residual activity (EPHB4 (human)): 97.1% | residual activity (IKBKE (human)): 89.2% | residual activity (SRMS (human)): 6.33% | residual activity (CDK4 CCND1 (human)): 59.9% | residual activity (WNK2 (human)): 143% | residual activity (DYRK1A (human)): 95% | residual activity (TGFBR2 (human)): 93.4% | residual activity (DAPK2 (human)): 83.4% | residual activity (MARK2 (human)): 94.2% | residual activity (PASK (human)): 73.4% | residual activity (CSF1R (human)): 11.6% | residual activity (HIPK4 (human)): 97.9% | residual activity (MINK1 (human)): 91.2% | residual activity (MAP2K1 (human)): 88.7% | residual activity (GRK4 (human)): 68.4% | residual activity (PAK1 (human)): 96.1% | residual activity (FRK (human)): 33.9% | residual activity (ULK2 (human)): 105% | residual activity (BLK (human)): 109% | residual activity (ERBB2 (human)): 22.2% | residual activity (MUSK (human)): 107% | residual activity (EPHA5 (human)): 81.5%

Ic1cccc(CSc2nnc(-c3ccncc3)o2)c1
residual activity (BRSK2 (human)): 99.3% | residual activity (CHEK2 (human)): 102% | residual activity (CSNK1D (human)): 103% | residual activity (DDR2 (human)): 103% | residual activity (MAPK9 (human)): 108% | residual activity (PIM1 (human)): 102% | residual activity (MAP3K14 (human)): 88.3% | residual activity (MERTK (human)): 96.4% | residual activity (MAP4K4 (human)): 97.4% | residual activity (SRPK2 (human)): 97.4% | residual activity (RPS6KA5 KD2 (human)): 97.2% | residual activity (MAPKAPK5 (human)): 83.6% | residual activity (PIM2 (human)): 102% | residual activity (PDGFRA (human)): 90.1% | residual activity (NEK6 (human)): 95.4% | residual activity (TSSK2 (human)): 110% | residual activity (CSNK2A2 (human)): 81% | residual activity (PRKD1 (human)): 97.6% | residual activity (CLK4 (human)): 90% | residual activity (NEK9 (human)): 99.2% | residual activity (EPHB4 (human)): 101% | residual activity (IKBKE (human)): 102% | residual activity (SRMS (human)): 93.4% | residual activity (CDK4 CCND1 (human)): 96.3% | residual activity (WNK2 (human)): 99.5% | residual activity (DYRK1A (human)): 96.4% | residual activity (TGFBR2 (human)): 121% | residual activity (DAPK2 (human)): 108% | residual activity (MARK2 (human)): 116% | residual activity (PASK (human)): 100% | residual activity (CSF1R (human)): 104% | residual activity (HIPK4 (human)): 98.8% | residual activity (MINK1 (human)): 90.2% | residual activity (MAP2K1 (human)): 95.4% | residual activity (GRK4 (human)): 99.9% | residual activity (PAK1 (human)): 94.8% | residual activity (FRK (human)): 85.5% | residual activity (ULK2 (human)): 111% | residual activity (BLK (human)): 103% | residual activity (ERBB2 (human)): 99.6% | residual activity (MUSK (human)): 94.1% | residual activity (EPHA5 (human)): 100%
